Here are results for 26 compounds from US8198274B2, “Substituted indolyl and indazolyl derivatives and uses thereof” (Roche Palo Alto LLC, priority 2008, dated 2012).

Where a name gives a salt, the structure may show the parent alone.

The target in one data set is T1, human serotonin transporter (hSERT) (Homo sapiens, UniProt P31645).
T1 construct: expressed in transfected cells; Tatsumi et al. 1997), membrane preparation
T1 sequence (P31645 whole entry): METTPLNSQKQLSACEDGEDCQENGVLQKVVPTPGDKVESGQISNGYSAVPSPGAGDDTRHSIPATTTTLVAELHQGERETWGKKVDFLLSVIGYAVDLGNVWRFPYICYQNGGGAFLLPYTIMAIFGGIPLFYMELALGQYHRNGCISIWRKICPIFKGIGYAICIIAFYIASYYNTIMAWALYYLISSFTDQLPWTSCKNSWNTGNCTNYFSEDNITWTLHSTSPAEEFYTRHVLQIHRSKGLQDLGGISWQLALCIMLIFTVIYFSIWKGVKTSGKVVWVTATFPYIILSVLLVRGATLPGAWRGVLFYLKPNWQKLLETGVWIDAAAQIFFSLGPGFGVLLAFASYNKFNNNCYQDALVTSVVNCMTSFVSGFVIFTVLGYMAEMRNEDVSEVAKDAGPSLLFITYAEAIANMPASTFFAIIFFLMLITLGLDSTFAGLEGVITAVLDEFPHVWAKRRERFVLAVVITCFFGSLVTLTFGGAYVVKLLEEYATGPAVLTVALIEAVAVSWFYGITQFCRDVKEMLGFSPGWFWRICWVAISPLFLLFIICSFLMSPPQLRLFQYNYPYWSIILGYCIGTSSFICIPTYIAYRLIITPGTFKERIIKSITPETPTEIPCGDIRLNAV
Nature of the data set: Screening for human serotonin transporter (hSERT) antagonists, scintillation proximity assay, competition with [3H]-Citalopram. It counts as binding. The following applies: membranes of HEK-293 cells, SPA. The method, then:
The screening assay of this example was used to determine the affinity of ligands at the hSERT transporter by competition with [^3H]-Citalopram.
Scintillation Proximity Assay (SPA) works by bringing radioligand within close proximity to the bead's scintillant to stimulate light emission. In this assay, the receptor-containing membranes were pre-coupled to the SPA beads and the binding of the appropriate radioligand to the transporter was measured. The light emission was proportional to the amount of bound radioligand. Unbound radioligand produced no signal as a result of distant proximity to scintillant (lack of energy transfer). […]
Cell membranes were prepared using a membrane preparation buffer of 50 mM TRIS (pH 7.4). […] After a second centrifugation, the pellet was re-homogenized and brought to a final volume determined during the assay. […]
The % inhibition was calculated for each compound tested [(Compound counts per minute (CPM) at maximum concentration-Non-Specific CPM)/Total CPM*100]. […]
[formula] where max=total binding, min=non specific binding, x=concentration (M) of the tested compound and n=Hill slope. The inhibition dissociation constant (Ki) of each compound was determined according to the method of Cheng-Prusoff and then converted into negative logarithm (pKi) of the Ki.
`CNCc1ccccc1Cc1ccc2[nH]cc(C#N)c2c1` [Compound 29, 5-(2-Methylaminomethyl-benzyl)-1H-indole-3-carbonitrile]: the Ki was ~0.1 nM.

System in another data set: not given
Assay: not given
Settings: not given
Take `c1cc2c(c(Cc3ccc4[nH]ccc4c3)c1)CNCC2`: the melting point was in the range of 173 to 174 °C.

Compound `CNCCc1ccccc1Cc1ccc2[nH]ccc2c1` showed a melting point of 95 to 97 °C.

Compound `c1cc2c(c(Cc3ccc4[nH]ccc4c3)c1)CCNC2` yielded a melting point of 194 to 195 °C.

As to `CNCc1cc(N2CCOCC2)ccc1Cc1ccc2[nH]ccc2c1` (as salt: fumarate) [Compound 39, [2-(1H-Indol-5-ylmethyl)-5-morpholin-4-yl-benzyl]-methyl-amine], the melting point lay in the range of 135 to 136 °C.

As to `CNCc1ccccc1Cc1ccc2[nH]c(S(C)(=O)=O)cc2c1` (as salt: fumarate) [Compound 49, [2-(2-Methanesulfonyl-1H-indol-5-ylmethyl)-benzyl]-methyl-amine], the melting point lay within 179 to 180 °C.

`CNCc1ccccc1Cc1ccc2[nH]ccc2c1` (as salt: hydrochloride) [Compound 1, [2-(1H-Indol-5-ylmethyl)-benzyl]-methyl-amine] showed a melting point of 198 to 199 °C.

With `CNCc1ccccc1Cc1ccc2cc[nH]c2c1` [Compound 15, [2-(1H-Indol-6-ylmethyl)-benzyl]-methyl-amine], the melting point was 132 °C.

Regarding `CNCc1ccccc1Cc1cccc2[nH]ccc12` [Compound 16, [2-(1H-Indol-4-ylmethyl)-benzyl]-methyl-amine], the melting point is 111 to 112 °C.

On to `c1ccc(CN2CCC2)c(Cc2ccc3[nH]ccc3c2)c1` [Compound 18, 5-(2-Azetidin-1-ylmethyl-benzyl)-1H-indole], for which the melting point lay in the range of 128 to 130 °C.

As to `CNCc1cc(F)ccc1Cc1ccc2[nH]ccc2c1` [Compound 20, [5-Fluoro-2-(1H-indol-5-ylmethyl)-benzyl]-methyl-amine], the melting point fell in the range of 162 to 163 °C.

The compound `OCCNCc1ccccc1Cc1ccc2[nH]ccc2c1` [Compound 21, 2-[2-(1H-Indol-5-ylmethyl)-benzylamino]-ethanol] showed a melting point of 117 to 118 °C.

Compound `CNCc1ccccc1C(O)c1ccc2[nH]ccc2c1` (stereo not drawn) [Compound 24, (1H-Indol-5-yl)-(2-methylaminomethyl-phenyl)-methanol] returned a melting point of 75 to 78 °C.

In the case of `c1ccc(Cn2ccnc2)c(Cc2ccc3[nH]ccc3c2)c1` [Compound 25, 5-(2-Imidazol-1-ylmethyl-benzyl)-1H-indole], the melting point was in the range of 61 to 67 °C.

Compound `CNCc1cc(Cl)ccc1Cc1ccc2[nH]ccc2c1` [Compound 27, [5-Chloro-2-(1H-indol-5-ylmethyl)-benzyl]-methyl-amine] yielded a melting point of 164 to 165 °C.

Consider `CNCc1ccccc1Cc1ccc2[nH]cc(C#N)c2c1` [Compound 29, 5-(2-Methylaminomethyl-benzyl)-1H-indole-3-carbonitrile], for which the melting point was in the range of 179 to 180 °C.

In turn, `CNCc1cccc(Cc2ccc3[nH]ccc3c2)c1` [Compound 32, [3-(1H-Indol-5-ylmethyl)-benzyl]-methyl-amine] had a melting point of 153 °C.

Compound `CNCc1ccc(OC)cc1Cc1ccc2[nH]ccc2c1` [Compound 33, [2-(1H-Indol-5-ylmethyl)-4-methoxy-benzyl]-methyl-amine] displayed a melting point of 157 to 158 °C.

The compound `CNCc1cc(OC)ccc1Cc1ccc2[nH]ccc2c1` [Compound 34, [2-(1H-Indol-5-ylmethyl)-5-methoxy-benzyl]-methyl-amine] displayed a melting point of 155 to 156 °C.

For `CNCc1cc(C#N)ccc1Cc1ccc2[nH]ccc2c1` [Compound 38, 4-(1H-Indol-5-ylmethyl)-3-methylaminomethyl-benzonitrile], the melting point was 144 to 145 °C.

In turn, `CNCc1cc(NS(C)(=O)=O)ccc1Cc1ccc2[nH]ccc2c1` [Compound 41, N-[4-(1H-Indol-5-ylmethyl)-3-methylaminomethyl-phenyl]-methanesulfonamide] came in with a melting point of 125 to 126 °C.

In turn, `O=C1CNCCN1c1ccccc1Cc1ccc2[nH]ccc2c1` [Compound 42, 1-[2-(1H-Indol-5-ylmethyl)-phenyl]-piperazin-2-one] showed a melting point of 100 to 102 °C.

With `CNCc1ccc(C#N)cc1Cc1ccc2[nH]ccc2c1` [Compound 43, 3-(1H-Indol-5-ylmethyl)-4-methylaminomethyl-benzonitrile], the melting point lay within 160 to 163 °C.

`CNCc1ccc(C(N)=O)cc1Cc1ccc2[nH]ccc2c1` [Compound 44, 3-(1H-Indol-5-ylmethyl)-4-methylaminomethyl-benzamide]: the melting point was in the range of 97 to 100 °C.

The compound `CNCc1scnc1Cc1ccc2[nH]ccc2c1` [Compound 45, [4-(1H-Indol-5-ylmethyl)-thiazol-5-ylmethyl]-methyl-amine] showed a melting point of 152 to 153 °C.

`NCC(O)c1ccccc1Cc1ccc2[nH]ccc2c1` (stereo not drawn) [Compound 47, 2-Amino-1-[2-(1H-indol-5-ylmethyl)-phenyl]-ethanol] came in with a melting point of 70 to 72 °C.

`c1ccc(N2CCOCC2)c(Cc2ccc3[nH]ccc3c2)c1` [Compound 48, 5-(2-Morpholin-4-yl-benzyl)-1H-indole]: the melting point fell in the range of 189 to 190 °C.
